Patent US20100041089A1, “IMPROVED METHOD FOR DETECTING CHEMICAL […]” (priority 2006, published 2010)

Test system: yeast genes (expressed mRNA)
Assay: DNA chip measurement of expressed mRNA of yeast genes after culture with a toxic chemical substance
Type: cell-based, Saccharomyces cerevisiae S288C
How it was run: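 Each expression value is the mRNA level in chemical-treated yeast divided by that in untreated yeast, from Cy3/Cy5 fluorescence on a whole-genome chip. Log-phase S288C cells in YPD at 25° C had received a sublethal, growth-inhibiting dose for two hours. Intensity denotes control expression relative to the all-gene mean.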

SMILES: CCCCC[C@H](O)CC(=O)CCc1ccc(O)c(OC)c1 [(13), Gingerol]
- The level of expressed mRNA in the presence of chemical substance/The level of expressed mRNA in the absence of chemical substance, yeast gene YDL067C (gene YDL067C (mitochondria-located protein gene), yeast cultured two hours with chemical substance, DNA chip fluorescence ratio to control): 0.6
- The level of expressed mRNA in the presence of chemical substance/The level of expressed mRNA in the absence of chemical substance, yeast gene YDR079W (gene YDR079W (mitochondria-located protein gene), yeast cultured two hours with chemical substance, DNA chip fluorescence ratio to control): 1.3
- level of expressed mRNA in the presence of chemical substance / level in the absence of chemical substance (yeast gene YAL018C, cultured two hours with the chemical substance): 1.3
- The level of expressed mRNA in the presence of chemical substance/The level of expressed mRNA in the absence of chemical substance (yeast gene YAR028W, cultured two hours with substance): 1.4
- level of expressed mRNA in the presence of chemical substance / level in the absence of chemical substance (yeast gene YAR047C, cultured two hours with the chemical substance): 1.4
- level of expressed mRNA in the presence of chemical substance / level in the absence of chemical substance (yeast gene YAR064W, cultured two hours with the chemical substance): 1.1
- level of expressed mRNA in the presence of chemical substance / level in the absence of chemical substance (yeast gene YBL044W, cultured two hours with the chemical substance): 0.7
- The level of expressed mRNA in the presence of chemical substance/The level of expressed mRNA in the absence of chemical substance (yeast gene YBL048W, cultured two hours with substance): 2.7
- level of expressed mRNA in the presence of chemical substance / level in the absence of chemical substance (yeast gene YBR012C, cultured two hours with the chemical substance): 2.1
- The level of expressed mRNA in the presence of chemical substance/The level of expressed mRNA in the absence of chemical substance (yeast gene YBR047W, cultured two hours with substance): 1.7
- The level of expressed mRNA in the presence of chemical substance/The level of expressed mRNA in the absence of chemical substance (yeast gene YBR062C, cultured two hours with substance): 2.8
- level of expressed mRNA in the presence of chemical substance / level in the absence of chemical substance (yeast gene YBR066C, cultured two hours with the chemical substance): 0.6
- level of expressed mRNA in the presence of chemical substance / level in the absence of chemical substance (yeast gene YBR124W, cultured two hours with the chemical substance): 0.9
- level of expressed mRNA in the presence of chemical substance / level in the absence of chemical substance (yeast gene YBR162C, cultured two hours with the chemical substance): 0.7
- The level of expressed mRNA in the presence of chemical substance/The level of expressed mRNA in the absence of chemical substance (yeast gene YBR185C, mitochondria-located protein gene, cultured two hours with substance): 1.0
- level of expressed mRNA in the presence of chemical substance / level in the absence of chemical substance (yeast gene YBR287W, cultured two hours with the chemical substance): 3.4
- level of expressed mRNA in the presence of chemical substance / level in the absence of chemical substance (yeast gene YCL042W, cultured two hours with the chemical substance): 7.5
- level of expressed mRNA in the presence of chemical substance / level in the absence of chemical substance (yeast gene YCL056C, cultured two hours with the chemical substance): 1.3
- level of expressed mRNA in the presence of chemical substance / level in the absence of chemical substance (yeast gene YCR007C, cultured two hours with the chemical substance): 1.5
- The level of expressed mRNA in the presence of chemical substance/The level of expressed mRNA in the absence of chemical substance (yeast gene YCR030C, cultured two hours with the chemical substance): 1.7
- level of expressed mRNA in the presence of chemical substance / level in the absence of chemical substance (yeast gene YDL046W, cultured two hours with the chemical substance): 1.5
- The level of expressed mRNA in the presence of chemical substance/The level of expressed mRNA in the absence of chemical substance (yeast gene YDL174C, cultured for two hours with substance): 5.9
- The level of expressed mRNA in the presence of chemical substance/The level of expressed mRNA in the absence of chemical substance (yeast gene YDR001C, cultured for two hours with substance): 2.8
- level of expressed mRNA in the presence of chemical substance / level in the absence of chemical substance (yeast gene YDR090C, cultured two hours with the chemical substance): 0.8
- level of expressed mRNA in the presence of chemical substance / level in the absence of chemical substance (yeast gene YDR128W, cultured two hours with the chemical substance): 1.1
- level of expressed mRNA in the presence of chemical substance / level in the absence of chemical substance (yeast gene YDR133C, cultured two hours with the chemical substance): 0.1
- The level of expressed mRNA in the presence of chemical substance/The level of expressed mRNA in the absence of chemical substance (yeast gene YDR214W, cultured two hours with substance): 5.3
- level of expressed mRNA in the presence of chemical substance / level in the absence of chemical substance (yeast gene YDR250C, cultured two hours with the chemical substance): 1.2
- level of expressed mRNA in the presence of chemical substance / level in the absence of chemical substance (yeast gene YDR278C, cultured two hours with the chemical substance): 0.7
- level of expressed mRNA in the presence of chemical substance / level in the absence of chemical substance (yeast gene YDR281C, cultured two hours with the chemical substance): 0.7
- level of expressed mRNA in the presence of chemical substance / level in the absence of chemical substance (yeast gene YDR366C, cultured two hours with the chemical substance): 0.8
- The level of expressed mRNA in the presence of chemical substance/The level of expressed mRNA in the absence of chemical substance (yeast gene YDR377W, mitochondria-located protein gene, cultured two hours with substance): 0.7
- The level of expressed mRNA in the presence of chemical substance/The level of expressed mRNA in the absence of chemical substance (yeast gene YDR486C, cultured two hours with substance): 1.7
- The level of expressed mRNA in the presence of chemical substance/The level of expressed mRNA in the absence of chemical substance (yeast gene YDR506C): 0.3
- The level of expressed mRNA in the presence of chemical substance/The level of expressed mRNA in the absence of chemical substance (yeast gene YDR533C, cultured two hours with substance): 3.0
- The level of expressed mRNA in the presence of chemical substance/The level of expressed mRNA in the absence of chemical substance (yeast gene YEL024W, mitochondria-located protein gene, cultured two hours with substance): 0.6
- The level of expressed mRNA in the presence of chemical substance/The level of expressed mRNA in the absence of chemical substance (yeast gene YER037W, cultured two hours with substance): 3.0
- The level of expressed mRNA in the presence of chemical substance/The level of expressed mRNA in the absence of chemical substance (yeast gene YER079W, cultured two hours with substance): 2.1
- The level of expressed mRNA in the presence of chemical substance/The level of expressed mRNA in the absence of chemical substance (yeast gene YFL014W, DNA repair protein genes, cultured two hours with substance): 15.2
- The level of expressed mRNA in the presence of chemical substance/The level of expressed mRNA in the absence of chemical substance (yeast gene YFL032W, cultured two hours with substance): 2.4
- The level of expressed mRNA in the presence of chemical substance/The level of expressed mRNA in the absence of chemical substance (yeast gene YFL044C, cultured two hours with substance): 4.7
- The level of expressed mRNA in the presence of chemical substance/The level of expressed mRNA in the absence of chemical substance (yeast gene YFR017C, cultured two hours with substance): 1.7
- level of expressed mRNA in the presence of chemical substance / level in the absence of chemical substance (yeast gene YFR026C, cultured two hours with the chemical substance): 1.1
- The level of expressed mRNA in the presence of chemical substance/The level of expressed mRNA in the absence of chemical substance (yeast gene YFR044C, cultured two hours with substance): 3.1
- The level of expressed mRNA in the presence of chemical substance/The level of expressed mRNA in the absence of chemical substance (yeast gene YGL037C, cultured two hours with substance): 2.3
- level of expressed mRNA in the presence of chemical substance / level in the absence of chemical substance (yeast gene YGL088W, cultured two hours with the chemical substance): 0.7
- The level of expressed mRNA in the presence of chemical substance/The level of expressed mRNA in the absence of chemical substance (yeast gene YGL187C, mitochondria-located protein gene, cultured two hours with substance): 0.7
- The level of expressed mRNA in the presence of chemical substance/The level of expressed mRNA in the absence of chemical substance (yeast gene YGL191W, mitochondria-located protein gene, cultured two hours with substance): 1.1
- level of expressed mRNA in the presence of chemical substance / level in the absence of chemical substance (yeast gene YGR038W, cultured two hours with the chemical substance): 1.2
- The level of expressed mRNA in the presence of chemical substance/The level of expressed mRNA in the absence of chemical substance (yeast gene YGR043C, cultured for two hours with substance): 6.9
- The level of expressed mRNA in the presence of chemical substance/The level of expressed mRNA in the absence of chemical substance (yeast gene YGR101W, cultured two hours with substance): 2.4
- The level of expressed mRNA in the presence of chemical substance/The level of expressed mRNA in the absence of chemical substance (yeast gene YGR110W, cultured two hours with substance): 3.6
- level of expressed mRNA in the presence of chemical substance / level in the absence of chemical substance (yeast gene YGR139W, cultured two hours with the chemical substance): 0.4
- The level of expressed mRNA in the presence of chemical substance/The level of expressed mRNA in the absence of chemical substance (yeast gene YGR146C, cultured two hours with substance): 1.7
- The level of expressed mRNA in the presence of chemical substance/The level of expressed mRNA in the absence of chemical substance (yeast gene YGR154C, cultured two hours with substance): 2.5
- The level of expressed mRNA in the presence of chemical substance/The level of expressed mRNA in the absence of chemical substance (yeast gene YGR161C, cultured two hours with substance): 2.8
- The level of expressed mRNA in the presence of chemical substance/The level of expressed mRNA in the absence of chemical substance (yeast gene YGR231C, DNA repair protein genes, cultured two hours with substance): 3.9
- level of expressed mRNA in the presence of chemical substance / level in the absence of chemical substance (yeast gene YGR243W, cultured two hours with the chemical substance): 1.1
- The level of expressed mRNA in the presence of chemical substance/The level of expressed mRNA in the absence of chemical substance (yeast gene YGR256W, cultured for two hours with substance): 3.9
- The level of expressed mRNA in the presence of chemical substance/The level of expressed mRNA in the absence of chemical substance (yeast gene YGR268C, cultured two hours with substance): 2.8
- level of expressed mRNA in the presence of chemical substance / level in the absence of chemical substance (yeast gene YGR293C, cultured two hours with the chemical substance): 0.7
- level of expressed mRNA in the presence of chemical substance / level in the absence of chemical substance (yeast gene YHL006C, cultured two hours with the chemical substance): 1.1
- level of expressed mRNA in the presence of chemical substance / level in the absence of chemical substance (yeast gene YHR095W, cultured two hours with the chemical substance): 0.7
- level of expressed mRNA in the presence of chemical substance / level in the absence of chemical substance (yeast gene YHR105W, cultured two hours with the chemical substance): 1.4
- level of expressed mRNA in the presence of chemical substance / level in the absence of chemical substance (yeast gene YHR181W, cultured two hours with the chemical substance): 0.7
- The level of expressed mRNA in the presence of chemical substance/The level of expressed mRNA in the absence of chemical substance (yeast gene YHR199C, cultured two hours with substance): 2.1
- The level of expressed mRNA in the presence of chemical substance/The level of expressed mRNA in the absence of chemical substance (yeast gene YIL087C, cultured two hours with substance): 2.4
- The level of expressed mRNA in the presence of chemical substance/The level of expressed mRNA in the absence of chemical substance (yeast gene YIL122W, cultured two hours with the chemical substance): 0.7
- level of expressed mRNA in the presence of chemical substance / level in the absence of chemical substance (yeast gene YIL127C, cultured two hours with the chemical substance): 0.4
- level of expressed mRNA in the presence of chemical substance / level in the absence of chemical substance (yeast gene YJL017W, cultured two hours with the chemical substance): 1.5
- level of expressed mRNA in the presence of chemical substance / level in the absence of chemical substance (yeast gene YJL037W, cultured two hours with the chemical substance): 1.1
- The level of expressed mRNA in the presence of chemical substance/The level of expressed mRNA in the absence of chemical substance (yeast gene YJL057C, cultured two hours with substance): 2.5
- The level of expressed mRNA in the presence of chemical substance/The level of expressed mRNA in the absence of chemical substance (yeast gene YJL082W, cultured two hours with substance): 2.1
- level of expressed mRNA in the presence of chemical substance / level in the absence of chemical substance (yeast gene YJL097W, cultured two hours with the chemical substance): 0.7
- The level of expressed mRNA in the presence of chemical substance/The level of expressed mRNA in the absence of chemical substance (yeast gene YJL144W, cultured two hours with substance): 3.9
- The level of expressed mRNA in the presence of chemical substance/The level of expressed mRNA in the absence of chemical substance (yeast gene YJL151C, cultured two hours with substance): 2.4
- The level of expressed mRNA in the presence of chemical substance/The level of expressed mRNA in the absence of chemical substance (yeast gene YJL161W, cultured two hours with substance): 2.5
- level of expressed mRNA in the presence of chemical substance / level in the absence of chemical substance (yeast gene YJR030C, cultured two hours with the chemical substance): 0.7
- The level of expressed mRNA in the presence of chemical substance/The level of expressed mRNA in the absence of chemical substance (yeast gene YJR046W, DNA repair protein genes, cultured two hours with substance): 3.0
- The level of expressed mRNA in the presence of chemical substance/The level of expressed mRNA in the absence of chemical substance (yeast gene YJR074W, cultured two hours with substance): 2.8
- The level of expressed mRNA in the presence of chemical substance/The level of expressed mRNA in the absence of chemical substance (yeast gene YJR121W, mitochondria-located protein gene, cultured two hours with substance): 1.0
- The level of expressed mRNA in the presence of chemical substance/The level of expressed mRNA in the absence of chemical substance (yeast gene YJR123W): 0.1
- level of expressed mRNA in the presence of chemical substance / level in the absence of chemical substance (yeast gene YKL051W, cultured two hours with the chemical substance): 1.2
